The source of these data is patent publication US4427660A, “Formyl-methionyl chemotatic peptide antibiotic conjugates useful in treating infections” (priority 1982, dated 1984).

The IC50 is the concentration that inhibits the measured activity by half. Low values mean inhibition by little substance, high ones a need for much substance.

Assay [1] deals with MN (monocyte) from human peripheral blood.
Protocol: (§1) The neutrophil (PMN) experiments used 3μ nitrocellulose filters and the monocyte (MN) experiments used 5μ polycarbonate filters. PMNs and MNs were prepared from human peripheral blood by Ficoll-Hypaque and dextran sedimentation techniques. […] PMN experiments were incubated at 37° C. for 3 hours, MN experiments for 90 minutes. After this the filters were removed and stained and counted visually with a microscope.
Assay [2] deals with PMN (neutrophil) from human peripheral blood.
Protocol: as §1
In assay [3] the test system is Escherichia coli ATCC 25922. Put plainly: Kirby-Bauer disc assay, inhibitory zone size. The assay is classed as cell-based. Particulars: E. coli, alone.
Protocol: In these tables antimicrobial activity is expressed as inhibitory zone size as performed by the Kirby-Bauer assay.
The experiments in Tables 10-14 were performed using the following bacteria, media and experimental protocol:
The bacteria were Escherichia coli ATCC 25922 and Pseudomonas aeruginosa ATCC 27835.
The media was Trypticase soy agar (Baltimore Biological Laboratories, BBL) used as a general growth medium. Broth media was Brain heart infusion broth (BBL) for E. coli and medium 81 [trypticase soy broth without dextrose plus 1% potassium nitrate] for P. aeruginosa.
Antimicrobial susceptibility was tested on M9 medium [a glucose minimal salts medium (Miller, 1972)] solidified with 1.5% agar (Difco) for the base or 0.7% agar for overlay.
The following is the experimental protocol: Broth cultures of E. coli or P. aeruginosa were grown overnight in broth at 35° C. Cultures were diluted to visually match a 0.5 McFarland turbidity standard (Matsen and Barry, 1974); the numbers of organisms in this suspension ordinarily were .congruent.10^8 viable cells per ml. Ten microliter (ul) was inoculated into 10 ml. of 0.7% M9 agar that was melted and cooled to 46°-50° C. This was overlaid onto a 50 ml base of 1.5% M9 agar in 15 cm diameter petri dishes. The agar overlay was allowed to harden at room temperature for 30 min. Antimicrobial tests disks were placed on the surface of the agar, and the plates were incubated overnight at 35° C. Diameters of zones of inhibition of bacterial growth were measued with a vernier caliper and recorded to the nearest 0.1 mm.
The test system of another assay is neutrophils. The assay is classed as cell-based, rabbit.
In assay [4] the test system is Rabbit polymorphononuclear leukocytes (neutrophils). The assay is classed as cell-based. Particulars: for times more active than f-Met-Phe-OH: chemotactic activity and lysosomal enzyme secretion-inducing activity alike. The method, then:
Rabbit polymorphononuclear leukocytes (neutrophils) were obtained 12 to 14 hours after the intraperitoneal injection of 0.1 percent glycogen, as described in Becker et al (Z. Immunitaetsforsch Exp. Klin. Immunol., Volume 143, Page 466 1972). They were washed in Hanks' balanched salt solution containing 0.01 M tris (hydroxymethyl) aminomethane, pH 7.2, 1 mg/ml of glucose, and 1 mg/ml of crystalline bovine serum albumin. The Hanks' balanced salt solution was the buffer used throughout the work.
The assay employed a modified Boyden chamber as described by Becker et al, supra. […] The loaded chambers were incubated for 30 minutes at 37° C. This time interval was chosen as giving, for the particular batch of filters used, the greatest difference between the number of cells moving into the filter with no peptide in the lower compartment (background) and the maximum number of cells moving into the filter when stimulated by peptide. At the end of the incubation the filters were removed and stained and the number of cells in five high-power (400 magnification) fields (5 HPF) were counted and averaged. The results reported are the means of duplicate chambers.
The migration enhancing activities of different peptides were compared essentially as described by Schiffmann et al (J. Immunol., Volume […], Page 1830, 1975) and Showell et al (J. Immunol., Volume 116, Page 99, 1976). In measuring the relative activity of the peptides, a peptide was diluted so that each concentration was one quarter that of the next higher concentration. The concentrations of peptides were chosen on the basis of preliminary experiments to cover the range giving minimum to maximal activity. The chemotactic activity plotted against the logarithm of the molar concentration of peptide yielded a sigmoidal-shaped dose-response curve. Different peptides tested at the same time with the same cells gave curves which were parallel to each other in their linear portions and had the same maximum. The activities of the different peptides are reported as the ED50, i.e., the concentration of chemotactic factor giving 50 percent of the maximum activity.
The results are reported as the means ED50 ±SE (standard error) as determined by at least three separate experiments. In this assay, the lower the value of the ED50, the greater is the chemotactic activity.

In a further assay the test system is leukocytes. The following applies: relatively weak chemoattractants; cited from earlier work.
A further assay has as its system peritoneal neutrophils. Put plainly: Test for true chemotaxis (Zigmond and Hirsch technique). The assay is classed as cell-based, rabbit. From the text:
Increased penetration of cells into or through the filter of a Boyden chamber system under the stimulus of a chemical agent is generally taken as indicating the chemotactic activity of the agent. Zigmond and Hirsch (J. Exp. Med., Volume 137, Page 387, 1973) have pointed out that the increased migration could result from a response directed by the chemical gradient, that is from chemotaxis, or from increased random locomotion or both. These authors have described a technique for determining if the movement of the cells into the filter of a Boyden chamber system under the influence of different gradients is greater than could be expected on the basis of increased rates of locomotion alone and to that extent is due to a true chemotactic response.
In testing f-Met-Leu-Phe-OH for true chemotaxis, 5×10^6 /ml of washed peritoneal neutrophils obtained twelve hours after the administration of 0.1 percent glycogen were suspended in varying concentrations of the peptide and placed in the upper compartment of a modified Boyden chamber. […] Using the micrometer of the fine adjustment of the microscope, the distance was measured from the top of the filter to the farthest plane of focus still containing two cells. This distance was determined across five fields and averaged. […] The test results were analyzed as described by Zigmond and Hirsch. […]

Assay [5] has as its target T1, surface receptor of rabbit polymorphonuclear leukocytes (Oryctolagus cuniculus, UniProt Q05394).
T1 construct: endogenous in cells; host or cells: rabbit polymorphonuclear leukocytes (neutrophils)
T1 sequence (Q05394 1-352): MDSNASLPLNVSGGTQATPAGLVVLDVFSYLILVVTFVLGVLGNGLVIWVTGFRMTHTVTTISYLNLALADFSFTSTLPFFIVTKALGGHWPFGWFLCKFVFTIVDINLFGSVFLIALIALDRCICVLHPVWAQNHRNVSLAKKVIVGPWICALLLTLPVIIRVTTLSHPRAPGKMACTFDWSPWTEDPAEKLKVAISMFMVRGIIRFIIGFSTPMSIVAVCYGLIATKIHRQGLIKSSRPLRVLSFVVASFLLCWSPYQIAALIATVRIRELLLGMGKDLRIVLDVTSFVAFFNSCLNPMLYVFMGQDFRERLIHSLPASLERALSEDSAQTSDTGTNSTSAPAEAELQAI
The assay can be described thus: Inhibition of F-Nle-leu (3H)PHE binding to rabbit PMN.

Setting [6] is: [F-Met-Leu-Phe] 10^-6, Sulfadiazine 5 μg.
[7] abbreviates: [F-Met-Leu-Phe] 10^-6, Sulfadiazine 50 μg.
[8] abbreviates: [F-Met-Leu-Phe] 10^-6, Sulfadiazine 100 μg.
Setting [9] is: [F-Met-Leu-Phe] 10^-7, Sulfadiazine 5 μg.
Where [10] appears, read: [F-Met-Leu-Phe] 10^-7, Sulfadiazine 50 μg.
[11] abbreviates: [F-Met-Leu-Phe] 10^-7, Sulfadiazine 100 μg.
The mark [12] stands for this setting: [F-Met-Leu-Phe] 10^-7, Sulfadiazine 250 μg.
Where [13] appears, read: [F-Met-Leu] 10^-3, Sulfadiazine 5 μg.
Where [14] appears, read: [F-Met-Leu] 10^-3, Sulfadiazine 25 μg.
[15] abbreviates: [F-Met-Leu] 10^-3, Sulfadiazine 50 μg.
The mark [16] stands for this setting: [F-Met-Leu] 10^-3, Sulfadiazine 100 μg.
Setting [17] is: [F-Met-Leu] 10^-3, Sulfadiazine 250 μg.
Setting [18] is: [F-Met-Leu] 10^-4, Sulfadiazine 5 μg.
The mark [19] stands for this setting: [F-Met-Leu] 10^-4, Sulfadiazine 25 μg.
[20] abbreviates: [F-Met-Leu] 10^-4, Sulfadiazine 50 μg.
Setting [21] is: [F-Met-Leu] 10^-4, Sulfadiazine 100 μg.
[22] abbreviates: [F-Met-Leu] 10^-4, Sulfadiazine 250 μg.
Setting [23] is: concentration giving 50 percent of maximum activity, mean of at least three experiments, 30 minutes at 37° C.
[24] abbreviates: molar concentration causing 50 percent of maximal release, 10 μg/ml cytochalasin B, five minutes at 37° C.

Where two headings read alike, the source gives them in different places. Positions of bridges follow the written chain, without caps; N, C: chain ends. Non-standard residues stand in square brackets, D forms with d. Residues, ends and D or L forms follow the SMILES beside them. *: point of attachment. Ileψ(thiazoline)Cys = CC[C@H](C)[C@H](N)C1=N[C@H](C(=O)*)CS1; dOrn = NCCC[C@@H](N)C(=O)O; Nle = CCCC[C@H](N)C(=O)O; For = O=C*

On to `Nc1ccc(S(=O)(=O)Nc2ncccn2)cc1` [Sulfadiazine, sulfadiazine], for which the “% Inhibition MN” value in assay [1] (setting [6]) is recorded as 22.5%; in assay [1] (setting [7]) it was 21.0%; in assay [1] (setting [8]) it was 82.0%; in assay [1] (setting [9]) it was 14.6%; in assay [1] (setting [10]), 13.7%; in assay [1] (setting [11]), 41.7%. Further, the “% Inhibition MN” value was 96.6% in assay [1] (setting [12]); 2.5% in assay [1] (setting [13]); 13.0% in assay [1] (setting [14]); 36.7% in assay [1] (setting [15]); 43.3% in assay [1] (setting [16]); 98.0% in assay [1] (setting [17]). The “% Inhibition MN” value was 20.0% in assay [1] (setting [18]); 17.5% in assay [1] (setting [19]); 17.0% in assay [1] (setting [20]); 60.0% in assay [1] (setting [21]); 97.5% in assay [1] (setting [22]). Also, the “% Inhibition PMN” value in assay [2] (setting [6]) came to 10.0%; in assay [2] ([F-Met-Leu-Phe] 10^-6, Sulfadiazine 25 μg), 8.0%; in assay [2] (setting [7]) it was 39.5%; in assay [2] (setting [8]) it was 49.0%; in assay [2] (setting [9]), 16.8%; in assay [2] ([F-Met-Leu-Phe] 10^-7, Sulfadiazine 25 μg) it was 18.0%. The “% Inhibition PMN” value in assay [2] (setting [10]) is reported as 65.8%; in assay [2] (setting [11]), 70.8%; in assay [2] (setting [12]), 88.0%; in assay [2] (setting [13]) it was 19.0%; in assay [2] (setting [14]) it was 38.0%; in assay [2] (setting [15]) it was 48.7%. In addition, the “% Inhibition PMN” value in assay [2] (setting [16]) was determined as 73.3%; in assay [2] (setting [17]), 83.9%; in assay [2] (setting [18]), 1.0%; in assay [2] (setting [19]) it was 14.0%; in assay [2] (setting [20]) it was 37.5%; in assay [2] (setting [21]), 53.0%. Also, the “% Inhibition PMN” value in assay [2] (setting [22]) amounted to 41.0%. In addition, the “Zone Diameter” value turned out to be 28.0 mm in assay [3] (disc 10 μg) and 32.0 mm in assay [3] (disc 25 μg).
With `CSCC[C@H](NC=O)C(=O)N[C@@H](CCSC)C(=O)N[C@@H](Cc1ccccc1)C(=O)O` [f--Met--Met--Phe--OH] (For-Met-Met-Phe-OH), in the assay with neutrophils, the “ED50 ± SE B-Glucoronidase” value is reported as 1.8 ± 0.24 × 10^-9 M and the “ED50 ± SE Lysosyme” value is recorded as 1.9 ± 0.4 × 10^-9 M. Moreover, the “Chemotactic Activity ED50 ± SE” value in assay [4] (setting [23]) is 2.1 ± 0.49 × 10^-10 M.
With `CC[C@H](C)[C@H](N)C1=N[C@H](C(=O)N[C@@H](CC(C)C)C(=O)N[C@H](CCC(=O)O)C(=O)N[C@H](C(=O)N[C@H]2CCCCNC(=O)[C@H](CC(N)=O)NC(=O)[C@@H](CC(=O)O)NC(=O)[C@H](Cc3cnc[nH]3)NC(=O)[C@@H](Cc3ccccc3)NC(=O)[C@H]([C@@H](C)CC)NC(=O)[C@@H](CCCN)NC2=O)[C@@H](C)CC)CS1` [bacitracin] ({Ileψ(thiazoline)Cys}-L[dE]IK[dOrn]I[dF]H[dD]N; lactam 4-C), the chemoattractant concentration in the assay with leukocytes is 10^-5 to 10^-6 M.
In the case of tyrocidin, the chemoattractant concentration with leukocytes is on record as 10^-5 to 10^-6 M.
For the compound `CSCC[C@H](NC=O)C(=O)N[C@@H](Cc1ccccc1)C(=O)N[C@@H](CC(C)C)C(=O)O` [f-Met-Phe-Leu-OH] (For-Met-Phe-Leu-OH), the “times less active than f-Met-Leu-Phe-OH” value in assay [4] (chemotactic and lysosomal enzyme secretion-inducing activities) was 500 times.
Take `CSCC[C@H](NC(=O)[C@H](CCSC)NC(=O)[C@H](CCSC)NC(=O)[C@H](CCSC)NC=O)C(=O)O` [f--Met--Met--Met--Met--OH] (For-MMMM-OH): in the assay with neutrophils, the “ED50 ± SE B-Glucoronidase” value was 3.0 ± 0.73 × 10^-9 M and the “ED50 ± SE Lysosyme” value is reported as 2.4 ± 0.34 × 10^-9 M. Besides, the “Chemotactic Activity ED50 ± SE” value in assay [4] was 3.0 ± 0.13 × 10^-10 M.
In the case of gramicidin, the chemoattractant concentration in the assay with leukocytes was 10^-5 to 10^-6 M.
As to `CSCC[C@H](NC=O)C(=O)N[C@@H](CC(C)C)C(=O)N[C@@H](Cc1ccccc1)C(=O)N[C@@H](CCCCN)C(=O)O` [f--Met--Leu--Phe--Lys--OH] (For-MLFK-OH), in the assay with neutrophils, the “ED50 ± SE B-Glucoronidase” value was 1.9 ± 0.3 × 10^-9 M and the “ED50 ± SE Lysosyme” value is 1.7 ± 0.5 × 10^-9 M. Besides, in assay [4], the “Chemotactic Activity ED50 ± SE” value is recorded as 7.0 ± 1.0 × 10^-10 M and the “times more active than f-Met-Phe-OH” value is 500 times.
Take `CSCC[C@H](NC=O)C(=O)N[C@@H](CC(C)C)C(=O)N[C@@H](Cc1ccccc1)C(=O)O` [FMLP, formyl-methionyl-leucyl-phenylalanine]: the “distance cells moved farther than predicted” value in the assay with peritoneal neutrophils (positive gradient (peptide below greater than above the filter)) is listed as “greater than 10 μm”. Further, the “true chemotaxis (experimental vs predicted values)” value in the assay on peritoneal neutrophils (sixty minutes at 37° C., 3.0 μm pore size filter) is “truly chemotactic”. Further, in the assay on neutrophils (setting [24]), the “ED50 ± SE B-Glucoronidase” value was 2.6 ± 0.32 × 10^-10 M and the “ED50 ± SE Lysosyme” value was 2.4 ± 0.31 × 10^-10 M. The compound further yielded an IC50 in assay [5] of 500 pM. In addition, the “times more active than f-Met-Phe-OH” value in assay [4] was 5,000 times. Besides, the “Chemotactic Activity ED50 ± SE” value in assay [4] (setting [23]) is given as 7.0 ± 1.7 × 10^-11 M.
In the case of `CCCC[C@H](NC=O)C(=O)N[C@@H](CC(C)C)C(=O)N[C@@H](Cc1ccccc1)C(=O)O` [f--Nle--Leu--Phe--OH] (For-[Nle]-Leu-Phe-OH), in the assay with neutrophils, the “ED50 ± SE B-Glucoronidase” value is 1.9 ± 0.2 × 10^-9 M and the “ED50 ± SE Lysosyme” value is reported as 1.5 ± 0.2 × 10^-9 M. Moreover, the “Chemotactic Activity ED50 ± SE” value in assay [4] is 6.6 ± 1.2 × 10^-10 M.
Take `CSCC[C@H](NC=O)C(=O)N[C@@H](Cc1ccccc1)C(=O)O` [f--Met--Phe--OH] (For-Met-Phe-OH): the “ED50 ± SE B-Glucoronidase” value with neutrophils was 2.0 ± 0.42 × 10^-6 M. In addition, the “ED50 ± SE Lysosyme” value in the assay with neutrophils (setting [24]) is 1.5 ± 0.39 × 10^-6 M. Further, in assay [4] (setting [23]), the “Chemotactic Activity ED50 ± SE” value is 4.1 ± 0.95 × 10^-7 M.
